Test results as given in ChEMBL document CHEMBL3046262, “Inhibitory Activity of Indanofan and Its Enantiomers on Biosynthesis of Very-Long-Chain Fatty Acids” (J Pestic Sci, 2005).
The source made the active and inactive calls. No cut-off for these calls is given here.

Tests used:
Allium ampeloprasum [1] = assay: Inhibition of very long chain fatty acid elongase in Allium ampeloprasum microsome using C20:0 as substrate and [14C]-malonate at 1 x 10^-7 M after 10 to 20 min by liquid scintillation counting; assay type: microsomes
Allium ampeloprasum [2] = assay: Inhibition of very long chain fatty acid elongase in Allium ampeloprasum microsome using C20:0 as substrate and [14C]-malonate at 1 x 10^-5 M after 10 to 20 min by liquid scintillation counting; assay type: microsomes
Allium ampeloprasum [3] = assay: Inhibition of very long chain fatty acid elongase in Allium ampeloprasum microsome using C20:0 as substrate and [14C]-malonate at 1 x 10^-6 M after 10 to 20 min by liquid scintillation counting; assay type: microsomes
[4] = Inhibition of very long chain fatty acid elongase in Allium ampeloprasum microsome using C20:0 as substrate and [14C]-malonate after 10 to 20 min by liquid scintillation counting; assay type: microsomes; conditions: read-out: I50
Allium ampeloprasum [5] = assay: Inhibition of very long chain fatty acid elongase in Allium ampeloprasum microsome using C18:0 as substrate and [14C]-malonate at 1 x 10^-4 M after 10 to 20 min by liquid scintillation counting; assay type: microsomes
Echinochloa crus-galli = assay: Herbicidal activity against Echinochloa crus-galli (barnyard grass) by pot assay; assay type: functional
Allium ampeloprasum [6] = assay: Inhibition of very long chain fatty acid elongase in Allium ampeloprasum microsome using C18:0 as substrate and [14C]-malonate at 1 x 10^-6 M after 10 to 20 min by liquid scintillation counting; assay type: microsomes
Allium ampeloprasum [7] = assay: Inhibition of very long chain fatty acid elongase in Allium ampeloprasum microsome using C18:0 as substrate and [14C]-malonate at 1 x 10^-5 M after 10 to 20 min by liquid scintillation counting; assay type: microsomes
[8] = Inhibition of very long chain fatty acid elongase in Allium ampeloprasum microsome using C18:0 as substrate and [14C]-malonate after 10 to 20 min by liquid scintillation counting; assay type: microsomes; conditions: read-out: I50
Allium ampeloprasum [9] = assay: Inhibition of very long chain fatty acid elongase in Allium ampeloprasum microsome using C20:0 as substrate and [14C]-malonate at 1 x 10^-4 M after 10 to 20 min by liquid scintillation counting; assay type: microsomes
Allium ampeloprasum [10] = assay: Inhibition of very long chain fatty acid elongase in Allium ampeloprasum microsome using C20:0 as substrate and [14C]-malonate at 3 x 10^-8 M after 10 to 20 min by liquid scintillation counting; assay type: microsomes
Allium ampeloprasum [11] = assay: Inhibition of very long chain fatty acid elongase in Allium ampeloprasum microsome using C18:0 as substrate and [14C]-malonate at 3 x 10^-8 M after 10 to 20 min by liquid scintillation counting; assay type: microsomes
Allium ampeloprasum [12] = assay: Inhibition of very long chain fatty acid elongase-mediated elongation to arachidic acid in Allium ampeloprasum microsome using [14C]-malonate after 10 to 20 min by liquid scintillation counting; assay type: microsomes
Allium ampeloprasum [13] = assay: Inhibition of very long chain fatty acid elongase in Allium ampeloprasum microsome using C20:0 as substrate and [14C]-malonate at 1 x 10^-8 M after 10 to 20 min by liquid scintillation counting; assay type: microsomes
Allium ampeloprasum [14] = assay: Inhibition of very long chain fatty acid elongase in Allium ampeloprasum microsome using [14C]-malonate assessed per vial at 0.1 uM after 10 to 20 min by liquid scintillation counting; assay type: microsomes
Allium ampeloprasum [15] = assay: Inhibition of very long chain fatty acid elongase in Allium ampeloprasum microsome using C20:0 as substrate and [14C]-malonate at 3 x 10^-9 M after 10 to 20 min by liquid scintillation counting; assay type: microsomes
Allium ampeloprasum [16] = assay: Inhibition of very long chain fatty acid elongase in Allium ampeloprasum microsome using C18:0 as substrate and [14C]-malonate at 1 x 10^-7 M after 10 to 20 min by liquid scintillation counting; assay type: microsomes
Allium ampeloprasum [17] = assay: Inhibition of very long chain fatty acid elongase in Allium ampeloprasum microsome using C18:0 as substrate and [14C]-malonate at 1 x 10^-8 M after 10 to 20 min by liquid scintillation counting; assay type: microsomes
Allium ampeloprasum [18] = assay: Inhibition of very long chain fatty acid elongase in Allium ampeloprasum microsome using C18:0 as substrate and [14C]-malonate at 3 x 10^-9 M after 10 to 20 min by liquid scintillation counting; assay type: microsomes
Allium ampeloprasum [19] = assay: Competitive inhibition of very long chain fatty acid elongase in Allium ampeloprasum microsome using C18:0-CoA as substrate after 10 min by Lineweaver-Burk plot analysis; assay type: microsomes

SMILES	inhibition (INH) (Allium ampeloprasum [1]) [%]	inhibition (INH) (Allium ampeloprasum [2]) [%]	inhibition (INH) (Allium ampeloprasum [3]) [%]	IC50 [4] [µM]	inhibition (INH) (Allium ampeloprasum [5]) [%]	ED50 (Echinochloa crus-galli)	inhibition (INH) (Allium ampeloprasum [6]) [%]	inhibition (INH) (Allium ampeloprasum [7]) [%]	IC50 [8] [µM]	inhibition (INH) (Allium ampeloprasum [9]) [%]	inhibition (INH) (Allium ampeloprasum [10]) [%]	inhibition (INH) (Allium ampeloprasum [11]) [%]	inhibition (Allium ampeloprasum [12]) [%]	inhibition (INH) (Allium ampeloprasum [13]) [%]	INH (Allium ampeloprasum [14]) [pmol]	inhibition (INH) (Allium ampeloprasum [15]) [%]	inhibition (INH) (Allium ampeloprasum [16]) [%]	inhibition (INH) (Allium ampeloprasum [17]) [%]	inhibition (INH) (Allium ampeloprasum [18]) [%]	inhibition (Allium ampeloprasum [19])
CCC1(C[C@@]2(c3cccc(Cl)c3)CO2)C(=O)c2ccccc2C1=O [(R)-INDANOFAN]	9	27	18	> 1000	25	inactive	14	23	> 1000	38	–	–	–	–	–	–	–	–	–	–
CCC1(CC2(c3cccc(Cl)c3)CO2)C(=O)c2ccccc2C1=O (stereo not drawn) [(RS)-INDANOFAN]	60	–	–	0.071	–	0.0524 KgAi/ha	–	–	0.03	–	31	49	86	11	3.6	8	82	19	9	–
CCC1(C[C@]2(c3cccc(Cl)c3)CO2)C(=O)c2ccccc2C1=O [(S)-INDANOFAN]	76	–	–	0.025	–	0.0254 KgAi/ha	–	–	0.017	–	54	71	–	31	–	15	93	30	7	Active
